Measurements from patent US10611730B2, “Benzimidazolone and benzothiazolone compounds and their use as AMPA receptor modulators” (Janssen Pharmaceutica NV, priority 2015, dated 2020).

Molecular target: TARP γ8 dependent AMPA receptor (GluA1o-g8 fusion channel) (Homo sapiens (Human), UniProt P42261+Q8WXS5)
Test: Calcium flux assay (FLIPR), HEK293 cells expressing GRIA1o-CACNG8 fusion
Assay type: cell-based
Conditions: inhibition of calcium flux after 15 μM glutamate, read-out: GluR1-γ8 pIC50 (converted)
How it was run: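 Stable HEK293 clone expressing GluA1o-γ8 fusion (1:1 stoichiometry), loaded with Calcium-5/6 dye plus test compound; glutamate-evoked fluorescence normalized to control wells. Concentration-response fitted to four-parameter logistic, midpoint taken as inhibitory potency.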

Chain of TARP γ8 dependent AMPA receptor (GluA1o-g8 fusion channel) (P42261 other isoform, or with tags, fused parts or gaps): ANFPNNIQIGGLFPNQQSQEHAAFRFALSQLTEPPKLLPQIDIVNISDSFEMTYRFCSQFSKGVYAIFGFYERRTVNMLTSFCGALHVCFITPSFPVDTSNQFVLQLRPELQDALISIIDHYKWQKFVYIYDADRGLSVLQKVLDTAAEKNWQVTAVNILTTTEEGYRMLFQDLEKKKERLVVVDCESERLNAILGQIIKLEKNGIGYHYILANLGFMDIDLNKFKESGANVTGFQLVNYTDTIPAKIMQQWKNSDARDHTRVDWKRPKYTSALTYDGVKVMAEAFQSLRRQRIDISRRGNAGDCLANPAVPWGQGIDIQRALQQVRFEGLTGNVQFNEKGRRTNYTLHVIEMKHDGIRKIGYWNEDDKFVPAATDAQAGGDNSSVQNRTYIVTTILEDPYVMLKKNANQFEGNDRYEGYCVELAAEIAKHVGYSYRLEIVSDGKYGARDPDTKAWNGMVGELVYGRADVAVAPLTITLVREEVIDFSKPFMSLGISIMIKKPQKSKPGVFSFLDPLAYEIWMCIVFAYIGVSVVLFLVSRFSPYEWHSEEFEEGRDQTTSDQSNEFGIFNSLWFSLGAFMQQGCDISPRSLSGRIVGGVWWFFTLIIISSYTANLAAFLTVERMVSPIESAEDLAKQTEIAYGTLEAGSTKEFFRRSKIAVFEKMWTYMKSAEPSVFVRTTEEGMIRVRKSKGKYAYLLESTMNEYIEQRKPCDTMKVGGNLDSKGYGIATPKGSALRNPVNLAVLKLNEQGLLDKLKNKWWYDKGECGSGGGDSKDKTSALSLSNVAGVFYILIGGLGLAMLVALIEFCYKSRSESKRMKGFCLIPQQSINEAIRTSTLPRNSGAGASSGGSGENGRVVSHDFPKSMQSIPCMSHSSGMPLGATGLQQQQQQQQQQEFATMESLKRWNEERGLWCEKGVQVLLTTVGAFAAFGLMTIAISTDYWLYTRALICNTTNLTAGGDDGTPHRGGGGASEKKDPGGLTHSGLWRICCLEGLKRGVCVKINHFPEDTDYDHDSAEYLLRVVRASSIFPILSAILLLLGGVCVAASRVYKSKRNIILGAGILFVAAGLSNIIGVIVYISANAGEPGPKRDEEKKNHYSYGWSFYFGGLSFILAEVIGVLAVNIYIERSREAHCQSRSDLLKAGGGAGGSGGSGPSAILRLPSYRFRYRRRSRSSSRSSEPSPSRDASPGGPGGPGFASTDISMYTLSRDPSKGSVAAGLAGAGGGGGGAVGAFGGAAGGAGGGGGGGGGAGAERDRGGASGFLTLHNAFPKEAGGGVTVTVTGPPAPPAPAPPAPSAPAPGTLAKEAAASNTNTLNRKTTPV

| IC50 [nM] | Compound |
| --- | --- |
| 251 | O=c1[nH]c2ccc(-c3cccc(-c4nnco4)c3Br)cc2[nH]1 [Example 193, 5-[2-Bromo-3-(1,3,4-oxadiazol-2-yl)phenyl]-1,3-dihydrobenzimidazol-2-one] |
| 501 | Cc1c(-c2ccc3[nH]c(=O)[nH]c3c2)cccc1-c1nnco1 [Example 194, 5-[2-Methyl-3-(1,3,4-oxadiazol-2-yl)phenyl]-1,3-dihydrobenzimidazol-2-one] |
| 2510 | Cc1nnc(-c2cccc(-c3ccc4[nH]c(=O)[nH]c4c3)c2C)o1 [Example 195, 5-[2-Methyl-3-(5-methyl-1,3,4-oxadiazol-2-yl)phenyl]-1,3-dihydrobenzimidazol-2-one] |
| 316 | O=c1[nH]c2ccc(-c3cccc(-c4nnc(C5CC5)o4)c3Cl)cc2[nH]1 [Example 196, 5-[2-Chloro-3-(5-cyclopropyl-1,3,4-oxadiazol-2-yl)phenyl]-1,3-dihydrobenzimidazol-2-one] |
| 398 | Cc1c(-c2ccc3[nH]c(=O)[nH]c3c2)cccc1-c1nnc(C2CC2)o1 [Example 197, 5-[3-(5-Cyclopropyl-1,3,4-oxadiazol-2-yl)-2-methyl-phenyl]-1,3-dihydrobenzimidazol-2-one] |
| 20 | Cc1c(-c2ccc3[nH]c(=O)[nH]c3c2)cccc1-c1nnc(C(F)(F)F)o1 [Example 198, 5-[2-Methyl-3-[5-(trifluoromethyl)-1,3,4-oxadiazol-2-yl]phenyl]-1,3-dihydrobenzimidazol-2-one] |
| 63.1 | Cc1c(-c2ccc3[nH]c(=O)[nH]c3c2)cccc1-c1ncno1 [Example 199, 5-[2-Methyl-3-(1,2,4-oxadiazol-5-yl)phenyl]-1,3-dihydrobenzimidazol-2-one] |
| 2510 | Cc1c(-c2ccc3[nH]c(=O)sc3c2)cccc1-c1ncno1 [Example 200, 6-[2-Methyl-3-(1,2,4-oxadiazol-5-yl)phenyl]-3H-1,3-benzothiazol-2-one] |
| 10 | Cc1c(-c2ccc3[nH]c(=O)[nH]c3c2)cccc1-c1nc(C2CC2)no1 [Example 201, 5-(3-(3-cyclopropyl-1,2,4-oxadiazol-5-yl)-2-methylphenyl)-1H-benzo[d]imidazol-2(3H)-one] |
| 3980 | Cc1c(-c2ccc3[nH]c(=O)sc3c2)cccc1-c1nc(C2CC2)no1 [Example 202, 6-[3-(3-Cyclopropyl-1,2,4-oxadiazol-5-yl)-2-methyl-phenyl]-3H-1,3-benzothiazol-2-one] |
| 39.8 | Cc1noc(-c2cccc(-c3ccc4[nH]c(=O)[nH]c4c3)c2C)n1 [Example 203, 5-[2-Methyl-3-(3-methyl-1,2,4-oxadiazol-5-yl)phenyl]-1,3-dihydrobenzimidazol-2-one] |
| 2510 | Cc1noc(-c2cccc(-c3ccc4[nH]c(=O)sc4c3)c2C)n1 [Example 204, 6-[2-Methyl-3-(3-methyl-1,2,4-oxadiazol-5-yl)phenyl]-3H-1,3-benzothiazol-2-one] |
| 39.8 | Cc1c(-c2ccc3[nH]c(=O)[nH]c3c2)cccc1-c1nc(C(F)(F)F)no1 [Example 205, 5-[2-Methyl-3-[3-(trifluoromethyl)-1,2,4-oxadiazol-5-yl]phenyl]-1,3-dihydrobenzimidazol-2-one] |
| 31.6 | Cc1c(-c2ccc3[nH]c(=O)[nH]c3c2)cccc1-c1ncon1 [Example 206, 5-[2-Methyl-3-(1,2,4-oxadiazol-3-yl)phenyl]-1,3-dihydrobenzimidazol-2-one] |
| 126 | Cc1c(-c2ccc3[nH]c(=O)sc3c2)cccc1-c1ncon1 [Example 207, 6-[2-Methyl-3-(1,2,4-oxadiazol-3-yl)phenyl]-3H-1,3-benzothiazol-2-one] |
| 15.8 | N#Cc1ccc(OC(F)(F)F)c(-c2ccc3[nH]c(=O)[nH]c3c2)c1Cl [Example 208, 2-Chloro-3-(2-oxo-1,3-dihydrobenzimidazol-5-yl)-4-(trifluoromethoxy)benzonitrile] |
| 15.8 | N#Cc1ccc(Cl)c(-c2ccc3[nH]c(=O)[nH]c3c2)c1OC(F)(F)F [Example 209, 4-Chloro-3-(2-oxo-1,3-dihydrobenzimidazol-5-yl)-2-(trifluoromethoxy)benzonitrile] |
| 63.1 | O=c1[nH]c2cc(F)c(-c3c(Cl)cccc3OC(F)(F)F)cc2s1 [Example 210, 6-[2-Chloro-6-(trifluoromethoxy)phenyl]-5-fluoro-3H-1,3-benzothiazol-2-one] |
| 0.1 | Cc1cc(-c2c(Cl)cccc2OC(F)(F)F)cc2[nH]c(=O)[nH]c12 [Example 211, 6-(2-Chloro-6-(trifluoromethoxy)phenyl)-4-methyl-1H-benzo[d]imidazol-2(3H)-one] |
| 200 | Cn1cc(-c2cccc(-c3ccc4[nH]c(=O)sc4c3)c2Cl)cn1 [Example 212, 6-(2-Chloro-3-(1-methyl-1H-pyrazol-4-yl)phenyl)benzo[d]thiazol-2(3H)-one] |
| 2510 | COC1CCN(c2cccc(-c3ccc4[nH]c(=O)sc4c3)c2Cl)CC1 [Example 213, 6-(2-Chloro-3-(4-methoxypiperidin-1-yl)phenyl)benzo[d]thiazol-2(3H)-one] |
| 2.51 | O=c1[nH]c2cc(-c3c(Cl)cccc3OC(F)(F)F)cc(F)c2[nH]1 [Example 214, 6-(2-chloro-6-(trifluoromethoxy)phenyl)-4-fluoro-1,3-dihydro-2H-benzo[d]imidazol-2-one] |

The next lines start with the compound.

| Compound | IC50 [nM] |
| --- | --- |
| Cc1noc(C)c1-c1cccc(Cl)c1-c1ccc2[nH]c(=O)[nH]c2c1 [Example 174, 5-[2-Chloro-6-(3,5-dimethylisoxazol-4-yl)phenyl]-1,3-dihydrobenzimidazol-2-one] | 794 |
| CC(C)n1nccc1-c1cccc(Cl)c1-c1ccc2[nH]c(=O)[nH]c2c1 [Example 175, 5-[2-Chloro-6-(2-isopropylpyrazol-3-yl)phenyl]-1,3-dihydrobenzimidazol-2-one] | 1260 |
| O=c1[nH]c2ccc(-c3c(Cl)cccc3-c3cn[nH]c3)cc2[nH]1 [Example 176, 5-[2-Chloro-6-(1H-pyrazol-4-yl)phenyl]-1,3-dihydrobenzimidazol-2-one] | 2000 |
| Cc1c(-c2cccc(Cl)c2-c2ccc3[nH]c(=O)[nH]c3c2)cnn1C [Example 177, 5-[2-Chloro-6-(1,5-dimethylpyrazol-4-yl)phenyl]-1,3-dihydrobenzimidazol-2-one] | 794 |
| O=c1[nH]c2ccc(-c3c(Cl)cccc3-c3cncnc3)cc2[nH]1 [Example 178, 5-(2-Chloro-6-pyrimidin-5-yl-phenyl)-1,3-dihydrobenzimidazol-2-one] | 3980 |
| Cc1cccc(-c2ccccc2)c1-c1ccc2[nH]c(=O)[nH]c2c1 [Example 179, 5-(2-Methyl-6-phenyl-phenyl)-1,3-dihydrobenzimidazol-2-one] | 63.1 |
| Cc1cccc(-c2ccccc2F)c1-c1ccc2[nH]c(=O)[nH]c2c1 [Example 180, 5-[2-(2-Fluorophenyl)-6-methyl-phenyl]-1,3-dihydrobenzimidazol-2-one] | 316 |
| Cc1cccc(-c2ccc(F)cc2)c1-c1ccc2[nH]c(=O)[nH]c2c1 [Example 181, 5-[2-(4-Fluorophenyl)-6-methyl-phenyl]-1,3-dihydrobenzimidazol-2-one] | 100 |
| COc1cccc(-c2cccc3cccnc23)c1-c1ccc2[nH]c(=O)[nH]c2c1 [Example 182, 5-[2-Methoxy-6-(8-quinolyl)phenyl]-1,3-dihydrobenzimidazol-2-one] | 1580 |
| Cn1ccc(-c2cccc(-c3ccc4[nH]c(=O)[nH]c4c3)c2Cl)n1 [Example 183, 5-[2-Chloro-3-(1-methylpyrazol-3-yl)phenyl]-1,3-dihydrobenzimidazol-2-one] | 1580 |
| O=c1[nH]c2ccc(-c3cccc(-c4ccncc4)c3Cl)cc2[nH]1 [Example 184, 5-[2-Chloro-3-(4-pyridyl)phenyl]-1,3-dihydrobenzimidazol-2-one] | 126 |
| Cn1cc(-c2cccc(-c3ccc4[nH]c(=O)[nH]c4c3)c2Cl)cn1 [Example 185, 5-[2-Chloro-3-(1-methylpyrazol-4-yl)phenyl]-1,3-dihydrobenzimidazol-2-one] | 50.1 |
| CC(C)(C)OC(=O)N1CCC=C(c2cccc(-c3ccc4[nH]c(=O)[nH]c4c3)c2Cl)C1 [Example 186, tert-Butyl 5-[2-chloro-3-(2-oxo-1,3-dihydrobenzimidazol-5-yl)phenyl]-3,6-dihydro-2H-pyridine-1-carboxylate] | 6.31 |
| O=c1[nH]c2ccc(-c3cccc(-n4ccnc4)c3Cl)cc2[nH]1 [Example 187, 5-(2-Chloro-3-imidazol-1-yl-phenyl)-1,3-dihydrobenzimidazol-2-one] | 3160 |
| O=c1[nH]c2ccc(-c3cccc(N4CCCCC4)c3Cl)cc2[nH]1 [Example 188, 5-[2-Chloro-3-(1-piperidyl)phenyl]-1,3-dihydrobenzimidazol-2-one] | 12.6 |
| CN(C)c1cccc(-c2ccc3[nH]c(=O)[nH]c3c2)c1Cl [Example 189, 5-[2-Chloro-3-(dimethylamino)phenyl]-1,3-dihydrobenzimidazol-2-one] | 3980 |
| O=c1[nH]c2ccc(-c3cccc(-c4nnco4)c3Cl)cc2[nH]1 [Example 190, 5-[2-Chloro-3-(1,3,4-oxadiazol-2-yl)phenyl]-1,3-dihydrobenzimidazol-2-one] | 2000 |
| Cc1nnc(-c2cccc(-c3ccc4[nH]c(=O)[nH]c4c3)c2Cl)o1 [Example 191, 5-[2-Chloro-3-(5-methyl-1,3,4-oxadiazol-2-yl)phenyl]-1,3-dihydrobenzimidazol-2-one] | 2000 |
| O=c1[nH]c2ccc(-c3c(Cl)ccc(-c4nnco4)c3Cl)cc2[nH]1 [Example 192, 5-[2,6-Dichloro-3-(1,3,4-oxadiazol-2-yl)phenyl]-1,3-dihydrobenzimidazol-2-one] | 631 |
